For the test, the target named is T1, P. falciparum Fam-A (PF3D7_1463500) (Plasmodium falciparum, UniProt Q8IKK1).
T1 construct: region encoding START domain, codon-optimised, cloned in pMALc2x, N-terminal His6, E. coli BL21(DE3), Ni and SEC, monomeric
The experiment in a line: […]-PC transfer from donor to acceptor vesicles. It counts as biochemical. The conditions noted are these: pH 7.4, 37 °C, 30 min, 25 μg/ml protein, BSA 1 mg/ml; labelled compound (14C).

T1 sequence (Q8IKK1 entry or part of it): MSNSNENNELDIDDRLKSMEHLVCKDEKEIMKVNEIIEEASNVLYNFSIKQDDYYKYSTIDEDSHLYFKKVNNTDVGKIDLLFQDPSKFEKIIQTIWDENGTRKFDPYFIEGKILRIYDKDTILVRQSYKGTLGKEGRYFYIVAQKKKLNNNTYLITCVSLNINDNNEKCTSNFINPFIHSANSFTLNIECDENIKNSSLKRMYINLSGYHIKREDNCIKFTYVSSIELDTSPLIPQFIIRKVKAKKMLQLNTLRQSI

Take `CCCCCCCCCCCCCCCC(=O)OC[C@H](COP(=O)([O-])OCC[N+](C)(C)C)OC(=O)CCCCCCCCCCCCCCC` [L-α-DiPalmitoyl-Phosphatidylcholine]: the PC transfer activity entry is given as “P. falciparum Fam-A reproducibly showed a lower, but detectable, level of PC transfer activity”.

Values taken from publication PMC5113031, “Variant Exported Blood-Stage Proteins Encoded by Plasmodium Multigene Families Are Expressed in Liver Stages Where They Are Exported into the Parasitophorous Vacuole” (PLoS Pathogens, 2016).
